PMC8300687, “A Fine-Tuned Lipophilicity/Hydrophilicity Ratio Governs Antibacterial Potency and Selectivity of Bifurcated Halogen Bond-Forming NBTIs” (Antibiotics, 2021)
In brackets after ≈: the same amount, converted by molar mass. Like-named read-outs stand apart in the source and are kept apart here.

How the values were obtained:
S. aureus DNA gyrase = biological target: T1, S. aureus DNA gyrase (Staphylococcus aureus, UniProt P20831); assay: biochemical; format: biochemical; details: for LE DNA Gyrase S. aureus: LE = (1.37/HA) × pIC50; for IC50: fluorescence plate supercoiling assay, mean of two to four measurements
T1 construct: purchased Inspiralis (Norwich, UK)
Procedure: (§1) A Gyrase Supercoiling High Throughput Plate assay kit, purchased from Inspiralis (Norwich. UK) was used to determine IC50 values of compounds on S. aureus and E. coli. […] Biotinylated oligonucleotide in wash buffer was immobilized onto the wells, and the excess oligonucleotide was washed off with wash buffer and ultrapure water. […] The reactions were stopped by adding the TF buffer (50 mM NaOAc (pH 4.7), 50 mM NaCl, and 50 mM MgCl2) to allow the triplex formation (biotin-oligonucleotide-plasmid) for additional 30 min. Afterward, the unbound plasmid was washed off using TF buffer, and the solution of Promega Diamond dye in T10 buffer (10 mM Tris-HCl (pH 8.0), 1 mM EDTA) was added. […] IC50 value represents the mean of two to four independent measurements.

E. coli DNA gyrase = biological target: T2, E. coli DNA gyrase (Escherichia coli, UniProt P0AES4); assay: Gyrase Supercoiling High Throughput Plate assay, E. coli; format: biochemical; details: for LE DNA Gyrase E. coli: LE = (1.37/HA) × pIC50
T2 construct: purchased Inspiralis (Norwich, UK)
Procedure: as §1

E. coli Topo IV = biological target: T3, E. coli Topo IV (Escherichia coli, UniProt P0AFI2); assay: Topo IV Relaxation High Throughput Plate assay, E. coli; format: biochemical; details: for LE Topo IV E. coli: LE = (1.37/HA) × pIC50
T3 construct: purchased Inspiralis (Norwich, UK)
Procedure: A Topo IV Relaxation High Throughput Plate assay kit, purchased from Inspiralis (Norwich. UK) was used to determine IC50 values of compounds on S. aureus and E. coli. […] Biotinylated oligonucleotide in wash buffer was immobilized onto the wells, and the excess oligonucleotide was washed off with wash buffer and ultrapure water. 1.5 U of S. aureus or E. coli […] enzyme was incubated together with 0.75 μg of supercoiled pNO1 plasmid as a substrate in the presence of 3 μL inhibitor solution in 10% DMSO and 0.008% Tween 20 at 37 °C for 30 min in a final reaction volume of 30 μL in dilution buffer (50 mM Tris-HCl (pH 7.5), 1 mM DTT, 1 mM EDTA, 40% (w/v) glycerol for S. aureus and 40 mM HEPES, KOH (pH 7.6), 100 mM potassium glutamate, 1 mM DTT, 1 mM EDTA, and 40% (v/v) glycerol for E. coli). The reactions were stopped by adding the TF buffer (50 mM NaOAc (pH 4.7), 50 mM NaCl, and 50 mM MgCl2) to allow the triplex formation (biotin-oligonucleotide-plasmid) for additional 30 min. Afterward, the unbound plasmid was washed off using TF buffer, and the solution of Promega Diamond dye in T10 buffer (10 mM Tris-HCl (pH 8.0), 1 mM EDTA) was added. […] IC50 value represents the mean of two to four independent measurements.

S. aureus (ATCC 29213) = assay: MIC broth microdilution, S. aureus ATCC 29213; format: cell-based
Procedure: (§2) Antimicrobial testing was carried out by the broth microdilution method in 96-well plate format following the Clinical and Laboratory Standards Institute (CLSI) guidelines and European Committee on Antimicrobial Susceptibility Testing (EUCAST) recommendations. Bacterial suspension of specific bacterial strain equivalent to 0.5 McFarland turbidity standard was diluted with cation-adjusted Mueller Hinton broth with TES (Thermo Fisher Diagnostic, Landsmeer, The Netherlands), to obtain a final inoculum of 10^5 CFU/mL. Compounds dissolved in DMSO and inoculum were mixed together and incubated for 18–20 h at 35 °C. Suspensions of Mycobacterium sp. were prepared into a tube of Middelbrook 7H9 broth supplemented with 5% OADC (Thermo Scientific, Trek Diagnostic Systems, West Sussex, UK) and incubated for at least 10 days. After incubation the minimal inhibitory concentration (MIC) values were determined by visual inspection as the lowest dilution of compounds showing no turbidity. Tetracycline was used as a positive control on every assay plate.

MRSA (QA-11.7) = assay: MIC broth microdilution, MRSA QA-11.7; format: cell-based, methicillin-resistant S. aureus; details: Staphylococcus aureus, 20 h, read-out: MIC MRSA (QA-11.7)
Procedure: as §2

E. coli (ATCC 25922) = assay: MIC broth microdilution, E. coli ATCC 25922; format: cell-based
Procedure: as §2

E. coli (QA-11.8) = assay: MIC broth microdilution, E. coli QA-11.8; format: cell-based
Procedure: as §2

E. coli (QA-11.7) = assay: MIC broth microdilution, E. coli QA-11.7; format: cell-based; details: Escherichia coli, 20 h, read-out: MIC E. coli (QA-11.7)
Procedure: as §2

E. coli (QA-11.3) = assay: MIC broth microdilution, E. coli QA-11.3; format: cell-based
Procedure: as §2

[1] = system: S. alachua RDK 030c (QA-1482/04); assay: MIC broth microdilution, S. alachua; format: cell-based
Procedure: as §2

[2] = system: C. jejuni RDK 135 (ATCC 33560); assay: MIC broth microdilution, C. jejuni; format: cell-based
Procedure: as §2

M. smegmatis = assay: MIC, M. smegmatis; format: cell-based, Mycobacterium smegmatis; details: Mycolicibacterium smegmatis; read-out: MIC M. smegmatis
Procedure: as §2

[3] = Staphylococcus aureus, ATCC29213; S. aureus ATCC 29213; read-out: S. aureus MIC (converted)
[4] = Staphylococcus aureus, ATCC29213; read-out: MIC S. aureus (ATCC 29213)
[5] = Escherichia coli, ATCC25922; read-out: MIC E. coli (ATCC 25922)
[6] = Escherichia coli, 20 h; read-out: MIC E. coli (QA-11.8)
[7] = multi-resistant isolate (ampicillin, azithromycin, cefotaxime, ertapenem, imipenem and others)
[8] = Escherichia coli, 20 h; read-out: MIC E. coli (QA-11.3)
[9] = Salmonella; read-out: MIC S. alachua RDK 030c (QA-1482/04)
[10] = Campylobacter jejuni, ATCC33560; read-out: MIC C. jejuni RDK 135 (ATCC 33560)
[11] = Escherichia coli, ATCC25922; E. coli ATCC 25922; read-out: E. coli MIC (converted)

T1 sequence (P20831 whole entry): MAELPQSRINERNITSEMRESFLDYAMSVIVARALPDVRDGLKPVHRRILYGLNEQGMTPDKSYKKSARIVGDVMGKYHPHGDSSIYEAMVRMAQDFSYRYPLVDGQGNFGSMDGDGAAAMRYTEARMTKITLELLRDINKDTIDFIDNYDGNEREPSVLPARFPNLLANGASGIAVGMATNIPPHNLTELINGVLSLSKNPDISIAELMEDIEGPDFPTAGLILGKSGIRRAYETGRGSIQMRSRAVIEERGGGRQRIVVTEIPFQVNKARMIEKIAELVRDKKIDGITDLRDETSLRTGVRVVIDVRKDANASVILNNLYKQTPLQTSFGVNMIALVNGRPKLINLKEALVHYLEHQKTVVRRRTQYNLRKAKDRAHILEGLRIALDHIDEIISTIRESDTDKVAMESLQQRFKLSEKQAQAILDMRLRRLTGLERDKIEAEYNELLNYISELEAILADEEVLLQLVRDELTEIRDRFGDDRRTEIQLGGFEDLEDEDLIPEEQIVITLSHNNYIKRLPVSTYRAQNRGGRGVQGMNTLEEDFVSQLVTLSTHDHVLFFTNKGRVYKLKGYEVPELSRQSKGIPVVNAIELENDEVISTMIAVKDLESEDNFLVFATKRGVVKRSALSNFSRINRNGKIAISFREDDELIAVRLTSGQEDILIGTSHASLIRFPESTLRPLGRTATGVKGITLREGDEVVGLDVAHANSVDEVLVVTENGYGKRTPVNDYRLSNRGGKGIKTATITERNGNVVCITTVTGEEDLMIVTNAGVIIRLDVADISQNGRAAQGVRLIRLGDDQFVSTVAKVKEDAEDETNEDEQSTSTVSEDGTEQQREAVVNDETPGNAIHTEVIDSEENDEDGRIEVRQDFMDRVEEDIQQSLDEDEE
T1 sequence (P0A0K8 whole entry partner): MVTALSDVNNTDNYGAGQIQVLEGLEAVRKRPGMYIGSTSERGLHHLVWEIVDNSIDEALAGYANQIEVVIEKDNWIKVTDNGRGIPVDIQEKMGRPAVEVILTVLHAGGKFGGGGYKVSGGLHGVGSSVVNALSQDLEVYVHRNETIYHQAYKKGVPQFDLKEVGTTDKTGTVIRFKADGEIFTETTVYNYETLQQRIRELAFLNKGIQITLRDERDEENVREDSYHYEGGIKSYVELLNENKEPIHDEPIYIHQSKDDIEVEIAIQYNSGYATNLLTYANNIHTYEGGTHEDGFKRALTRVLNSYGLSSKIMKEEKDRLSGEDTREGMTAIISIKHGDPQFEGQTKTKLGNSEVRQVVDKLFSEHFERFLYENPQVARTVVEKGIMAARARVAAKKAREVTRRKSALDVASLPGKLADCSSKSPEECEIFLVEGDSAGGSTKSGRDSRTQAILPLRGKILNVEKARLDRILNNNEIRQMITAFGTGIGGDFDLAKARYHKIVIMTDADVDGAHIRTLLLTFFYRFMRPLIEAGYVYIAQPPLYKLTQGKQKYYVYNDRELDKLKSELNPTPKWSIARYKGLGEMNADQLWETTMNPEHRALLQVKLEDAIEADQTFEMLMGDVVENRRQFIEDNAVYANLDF
T2 sequence (P0AES4 whole entry): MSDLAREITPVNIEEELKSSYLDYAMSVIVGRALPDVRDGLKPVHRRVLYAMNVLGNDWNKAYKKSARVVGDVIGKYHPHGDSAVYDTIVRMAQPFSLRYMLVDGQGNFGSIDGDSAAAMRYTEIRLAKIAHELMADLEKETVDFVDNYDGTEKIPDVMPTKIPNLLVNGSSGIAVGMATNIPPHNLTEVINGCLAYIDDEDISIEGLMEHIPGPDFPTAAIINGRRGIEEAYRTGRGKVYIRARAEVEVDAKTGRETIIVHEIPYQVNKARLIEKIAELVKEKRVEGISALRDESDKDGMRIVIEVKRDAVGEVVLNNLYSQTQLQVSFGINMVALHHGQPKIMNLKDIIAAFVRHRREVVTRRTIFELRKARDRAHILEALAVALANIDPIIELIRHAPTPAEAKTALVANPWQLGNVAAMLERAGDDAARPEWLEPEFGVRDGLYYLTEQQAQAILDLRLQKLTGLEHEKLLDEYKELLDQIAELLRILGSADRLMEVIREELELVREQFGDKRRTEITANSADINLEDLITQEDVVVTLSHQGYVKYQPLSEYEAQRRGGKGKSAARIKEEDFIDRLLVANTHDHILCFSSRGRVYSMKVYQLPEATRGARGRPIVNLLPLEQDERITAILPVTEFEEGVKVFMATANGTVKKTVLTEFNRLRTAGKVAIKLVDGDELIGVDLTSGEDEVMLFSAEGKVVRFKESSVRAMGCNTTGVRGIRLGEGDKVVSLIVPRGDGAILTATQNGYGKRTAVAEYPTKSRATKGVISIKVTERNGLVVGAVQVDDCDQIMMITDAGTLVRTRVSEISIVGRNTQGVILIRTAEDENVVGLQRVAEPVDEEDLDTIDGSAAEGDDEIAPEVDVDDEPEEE
T3 sequence (P0AFI2 whole entry): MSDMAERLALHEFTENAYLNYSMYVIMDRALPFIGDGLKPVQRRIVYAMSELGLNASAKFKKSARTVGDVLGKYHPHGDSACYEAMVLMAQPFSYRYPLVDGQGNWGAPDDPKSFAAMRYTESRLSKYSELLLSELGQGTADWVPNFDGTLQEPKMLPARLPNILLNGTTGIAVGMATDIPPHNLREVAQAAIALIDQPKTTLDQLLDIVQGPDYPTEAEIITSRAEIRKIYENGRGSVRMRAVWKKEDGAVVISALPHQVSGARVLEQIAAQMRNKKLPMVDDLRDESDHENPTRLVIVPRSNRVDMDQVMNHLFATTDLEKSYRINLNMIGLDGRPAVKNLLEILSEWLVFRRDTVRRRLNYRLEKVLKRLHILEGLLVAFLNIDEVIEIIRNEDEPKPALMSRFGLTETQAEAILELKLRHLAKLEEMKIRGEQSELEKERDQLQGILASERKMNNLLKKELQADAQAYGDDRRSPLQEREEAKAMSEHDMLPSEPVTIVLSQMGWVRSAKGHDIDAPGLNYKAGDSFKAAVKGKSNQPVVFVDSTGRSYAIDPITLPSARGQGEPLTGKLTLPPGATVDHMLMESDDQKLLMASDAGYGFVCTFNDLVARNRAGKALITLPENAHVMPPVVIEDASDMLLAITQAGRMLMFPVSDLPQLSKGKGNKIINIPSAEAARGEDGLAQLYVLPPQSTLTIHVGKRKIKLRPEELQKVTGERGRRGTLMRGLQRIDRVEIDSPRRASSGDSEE
T3 sequence (P20083 whole entry, further chain): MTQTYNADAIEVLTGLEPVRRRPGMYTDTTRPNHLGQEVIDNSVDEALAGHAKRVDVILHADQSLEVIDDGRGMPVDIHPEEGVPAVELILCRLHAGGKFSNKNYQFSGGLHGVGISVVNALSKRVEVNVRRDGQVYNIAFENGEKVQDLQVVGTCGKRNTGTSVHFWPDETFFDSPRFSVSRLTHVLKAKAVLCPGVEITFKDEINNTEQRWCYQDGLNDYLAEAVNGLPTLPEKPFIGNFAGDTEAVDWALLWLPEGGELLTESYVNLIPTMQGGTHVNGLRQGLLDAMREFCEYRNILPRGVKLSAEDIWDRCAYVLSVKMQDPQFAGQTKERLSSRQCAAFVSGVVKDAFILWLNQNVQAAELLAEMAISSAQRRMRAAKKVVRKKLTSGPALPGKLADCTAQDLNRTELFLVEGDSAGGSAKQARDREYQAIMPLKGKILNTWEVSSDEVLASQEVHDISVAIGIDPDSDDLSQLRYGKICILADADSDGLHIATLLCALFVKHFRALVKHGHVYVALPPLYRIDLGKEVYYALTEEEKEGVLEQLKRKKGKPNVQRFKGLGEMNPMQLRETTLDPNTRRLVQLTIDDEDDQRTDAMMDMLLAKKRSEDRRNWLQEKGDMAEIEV

Row | SMILES | LE DNA Gyrase S. aureus (S. aureus DNA gyrase) | IC50 (S. aureus DNA gyrase) [nM] | IC50 (E. coli DNA gyrase) [nM] | IC50 (E. coli Topo IV) [nM] | LE Topo IV E. coli (E. coli Topo IV) | MIC (S. aureus (ATCC 29213); [3]) [µM] | MIC (S. aureus (ATCC 29213); [4]) [µg/mL] | MIC (MRSA (QA-11.7)) [µg/mL] | MIC (E. coli (ATCC 25922); [5]) [µg/mL] | MIC (E. coli (QA-11.8); [6]) [µg/mL] | MIC (E. coli (QA-11.7); [7]) [µg/mL] | MIC (E. coli (QA-11.3); [8]) [µg/mL] | MIC [1, 9] [µg/mL] | MIC [2, 10] [µg/mL] | MIC (M. smegmatis) [µg/mL] | LE DNA Gyrase E. coli (E. coli DNA gyrase) | MIC (E. coli (ATCC 25922); [11]) [µM] | further results
1 | COc1ccc2nccc(CCN3CCC(NCc4nc5ccccc5n4C)CC3)c2n1 [Compound 3, 1-(2-(6-Methoxy-1,5-naphthyridin-4-yl)ethyl)-N-((1-methyl-1H-benzo[d]imidazol-2-yl)methyl)piperidin-4-amine] | 0.25 | 1600 ± 350 | > 100000 | 1180 ± 90 | 0.25 | 2.32 | 1 | 8 (≈ 18.6 µM) | > 128 | 64 (≈ 149 µM) | 64 (≈ 149 µM) | 128 (≈ 297 µM) | > 128 | 1 (≈ 2.32 µM) | 4 (≈ 9.29 µM) |  |  | MIC (E. coli (ATCC 25922); Escherichia coli, ATCC25922, 20 h; E. coli ATCC 25922; read-out: E. coli MIC (converted)): 297 µM
2 | COc1ccc2nccc(CCN3CCC(NCc4cnn(-c5ccc(F)cc5)c4)CC3)c2n1 [Compound 4, N-((1-(4-Fluorophenyl)-1H-pyrazol-4-yl)methyl)-1-(2-(6-methoxy-1,5-naphthyridin-4-yl)ethyl)piperidin-4-amine] | 0.25 | 510 ± 250 | 13300 ± 2840 | 120 ± 10 | 0.28 | 4.34 | 2 | 2 (≈ 4.34 µM) | 32 | 16 (≈ 34.7 µM) | 16 (≈ 34.7 µM) | 8 (≈ 17.4 µM) | 128 (≈ 278 µM) | 128 (≈ 278 µM) | ≤ 1 | 0.20 | 69.5 | 
3 | COc1ccc2nccc(CCN3CCC(NCc4cnn(-c5ccccc5)c4)CC3)c2n1 [Compound 5, 1-(2-(6-Methoxy-1,5-naphthyridin-4-yl)ethyl)-N-((1-phenyl-1H-pyrazol-4-yl)methyl)piperidin-4-amine] | 0.27 | 330 ± 80 | 3000 ± 550 | 85 ± 2 | 0.29 | 0.57 | 0.25 | 0.5 (≈ 1.13 µM) | 16 | 2 (≈ 4.52 µM) | 2 (≈ 4.52 µM) | 2 (≈ 4.52 µM) | 64 (≈ 145 µM) | 16 (≈ 36.2 µM) | 0.25 (≈ 0.565 µM) | 0.23 | 36.1 | improvement in S. aureus gyrase IC50 compared to its predecessor (S. aureus DNA gyrase; vs methoxy-quinoline cyclohexyl-amide predecessor): 2.5 fold; increase in potency on E. coli DNA gyrase (E. coli DNA gyrase; vs most potent compound from previous study [18]): Approximately 4 fold
4 | COc1ccc2nccc(CCN3CCC(NCc4c(C)nc5c(C)cccn45)CC3)c2n1 [Compound 6, N-((2,8-Dimethylimidazo[1,2-a]pyridin-3-yl)methyl)-1-(2-(6-methoxy-1,5-naphthyridin-4-yl)ethyl)piperidin-4-amine] |  | > 100000 | > 100000 | > 100000 |  |  |  | > 128 |  |  |  |  |  |  | 64 (≈ 144 µM) |  |  | MIC (S. aureus (ATCC 29213); Staphylococcus aureus, ATCC29213, read-out: MIC S. aureus (ATCC 29213)): > 128 µg/mL; MIC (S. aureus (ATCC 29213); Staphylococcus aureus, ATCC29213, read-out: S. aureus MIC in molar): 288 µM; MIC (E. coli (ATCC 25922); Escherichia coli, ATCC25922, 20 h, read-out: E. coli MIC in molar): 288 µM; MIC (E. coli (ATCC 25922); Escherichia coli, ATCC25922, read-out: MIC E. coli (ATCC 25922)): > 128 µg/mL; MIC (E. coli (QA-11.8); Escherichia coli, 20 h, read-out: MIC E. coli (QA-11.8)): > 128 µg/mL; MIC (E. coli (QA-11.7)): > 128 µg/mL; MIC (E. coli (QA-11.3); Escherichia coli, 20 h, read-out: MIC E. coli (QA-11.3)): 128 µg/mL (≈ 288 µM); MIC ([1]; Salmonella, read-out: MIC S. alachua RDK 030c (QA-1482/04)): > 128 µg/mL; MIC ([2]; Campylobacter jejuni, ATCC33560, read-out: MIC C. jejuni RDK 135 (ATCC 33560)): > 128 µg/mL
